The record followed here is patent US10004785B2, “LKKTET and/or LKKTNT peptide compositions which are lyophilized or in a form capable of being lyophilized” (RegeneRX Biopharmaceuticals, Inc., priority 2005, dated 2018).

Experiment [1] relates to Human corneal epithelial cells. Nature of the experiment: colorimetric BrdU incorporation assay (cell proliferation). The experiment is classed as cell-based. The following applies: 1 mcg/ml Tβ4, 3 and 24 hour time points. The procedure: (§1) Human corneal epithelial cells at approximately 80% confluence were treated with 0%, 0.001%, 0.01%, or 0.1% BAK for 15 minutes. After 3 and 24 hours of recovery in culture medium, cell proliferation was measured using a colorimetric BrdU incorporation assay. Apoptosis was measured using a colorimetric annexin-based cell death assay. […] To further assess the ability of Tb4 to prevent apoptosis, corneal epithelial cells were treated with 0.01% BAK±Tβ4 over a 5 day time course.

Experiment [2] concerns Human corneal epithelial cells. Nature of the experiment: colorimetric annexin-based cell death assay (apoptosis). The following applies: 1 mcg/ml Tβ4, 3 and 24 hour time points. The procedure:
as §1

As for “Thymosin beta 4 (SDKPDMAEIEKFDKSKLKKTETQEKNPLPSKETIEQEKQAGES; Thymosin beta-4; UniProt P62328 2-44, looked up) [Tβ4, a 43 amino acid, 4.9 kDa ubiquitous polypeptide originally isolated from the thymus]”, the “cell proliferation of BAK-treated corneal epithelial cells” value in experiment [1] is given as “not promoted”. Besides, the “apoptosis of BAK-treated corneal epithelial cells” value in experiment [2] is reported as “not inhibited”.
